# pIC50: −log10 of the molar value. Activity calls are given as the source filed them. Rule as the data show it: active = IC50 below about 20 µM; inactive = the rest.
# Test system: Gli-responsive luciferase reporter cells, SUFU pathway antagonism
# Assay: Gli-SUFU pathway antagonists, dose response, cell-based, luciferase luminescence, uHTS hits (AID 602464)
SMILES,pIC50,IC50
C=CCOC(=O)c1[nH]c2c(c1C)C(=O)CC(c1cc(OC)c(OC)c(OC)c1)C2 (stereo not drawn),5.70,
CCC(=O)c1ccc(OCC(O)Cn2c(C)nc3ccccc32)cc1 (stereo not drawn),5.10,
CCOc1ccc(-n2c(-c3ccc(Cl)cc3)c[n+]3c2SCC3)cc1,5.46,
CC(C)C[C@H]1CN=C(N(C)C)N1CCCCc1ccccc1,5.10,
CNS(=O)(=O)c1cccc(C(=O)OCC(=O)c2cc(C)n(CC3CCCO3)c2C)c1 (stereo not drawn),6.13,
CCC(C(=O)NCCC(C)C)n1ccc2cc(S(=O)(=O)N3CCCCC3)ccc21 (stereo not drawn),5.05,
COC(=O)c1cc(S(=O)(=O)N2CCC(c3cc(OC)ccc3OC)C2)c[nH]1 (stereo not drawn),5.00,
CCCCNc1c(-c2ccc(OC)c(Sc3ccc(OC)cc3)c2)nc2ccccn12,5.20,
O=C(Cn1cc(C(=O)C2CC2)c2ccccc21)Nc1ccccc1Cl,4.95,
O=C(Nc1ccncc1)c1ccc(-c2ccccc2)cc1,5.19,
c1ccc2c(c1)OCC(CNc1ncnc3sccc13)O2 (stereo not drawn),6.05,
CCOC(=O)c1c(NC(=O)COc2ncnc3ccccc23)sc(C(C)=O)c1C,5.00,
COc1ccc(CNCC(O)COc2cccc3c2OC(C)(C)C3)cc1 (stereo not drawn),5.22,
O=C(c1cccc(S(=O)(=O)N2CCN(c3ccccc3)CC2)c1)N1CCCC(C(F)(F)F)C1 (stereo not drawn),5.10,
CCOc1ccc2[nH]c3c(N4CCN(C(=O)c5ccco5)CC4)ncnc3c2c1,5.15,
Cc1cc(C)c(C)c(S(=O)(=O)N2CCN(c3ncnc4ccccc34)CC2)c1C,5.34,
COc1cc(C(=O)NC2CCN(C)CC2)ccc1Nc1ncc2c(n1)N(Cc1ccccc1)CCC(=O)N2C,5.89,
CCCOc1ccccc1N/C(=N/c1nc(C)cc(C)n1)NC(=O)COc1ccc(OC)cc1,5.11,
c1ccc(C[n+]2cccc(-c3ccccc3)c2)cc1,4.97,
O=c1c2ccccc2sc2c(CO)ccc(NCCN3CCCCC3)c12,,> 20 µM (inactive)
O=C(N[C@@H]1C/C=C\C[C@@H](CC(=O)N(CCO)Cc2ccccc2)C(=O)NCCOC1=O)OCC1c2ccccc2-c2ccccc21,4.90,
CC(CC(=O)N1CCN(c2cccc(Cl)c2)CC1)S(=O)(=O)c1ccc2c(c1)NC(=O)CO2 (stereo not drawn),5.19,
COc1ccc(NS(=O)(=O)c2ccc(N3CCOCC3)c(N)c2)cc1,5.29,
Cc1csc2ncnc(NCCc3ccccn3)c12,5.15,
Cc1ccc(C2=C(CC(=O)O)C(=O)CC2)cc1,,> 20 µM (inactive)
O=C(c1cc2sccc2n1Cc1ccccc1)N1CCN(c2nc3ccccc3s2)CC1,5.33,
Cc1cc(=O)[nH]c(SCC(=O)/C=C2\N(C)c3ccccc3C2(C)C)n1,5.29,

SMILES,pIC50,IC50
CCn1cc[n+](C)c1P(c1ccccc1)c1ccccc1,5.07,
Cc1ccc(-c2csc(NC(=O)c3c(C)noc3C)n2)s1,5.26,
CCOc1ccc(NC(=S)NNc2ccnc3cc(Cl)ccc23)cc1,5.27,
CCC(C)NS(=O)(=O)c1ccc(S(=O)(=O)N2CCCC3(CCCCC3)C2)cc1 (stereo not drawn),,> 20 µM (inactive)
Cc1ccc(O)c(NC(=O)COc2cc(C)ccc2C)c1,5.48,
Cc1ccc(C(=O)N2CCN3C(=O)c4ccccc4C23c2ccc(Cl)cc2)cc1 (stereo not drawn),5.31,
CC1CCCCC1NS(=O)(=O)c1ccc(S(=O)(=O)NCc2ccncc2)cc1 (stereo not drawn),5.25,
CCOc1ccc(-c2cc(C)[n+](CCO)c(-c3ccc(OCC)cc3)c2)cc1,4.83,
Cc1cc(C)c(C(N)=O)c(SCC(=O)c2cc(C)n(-c3cc(C)on3)c2C)n1,5.32,
CCc1cc(C(=O)NC2CCCN(Cc3ccccc3F)C2)n(C)n1 (stereo not drawn),4.88,
CCN1CCCC1CNc1ncnc2c1[nH]c1ccc(Cl)cc12 (stereo not drawn),,> 20 µM (inactive)
Cc1cc(Nc2ccc([N+](=O)[O-])cc2)c2ccccc2n1,,> 20 µM (inactive)
CCN(CC(=O)Nc1c(F)cccc1F)C(=O)c1cc(S(=O)(=O)N(CC)CC)ccc1N1CCCCC1,4.91,
COc1ccc(N2CCN(c3ncnc4c3[nH]c3ccccc34)CC2)cc1,5.60,
COc1ccccc1C(=O)NC(=S)/C=C1/N(C)c2ccccc2C1(C)C,5.07,
Cc1sc2ncnc(NCC3COc4ccccc4O3)c2c1C (stereo not drawn),5.29,
O=C(N[C@H]1C/C=C\C[C@@H](CC(=O)N(CCO)Cc2ccccc2)C(=O)N[C@H](Cc2c[nH]c3ccccc23)COC1=O)OCC1c2ccccc2-c2ccccc21,4.98,
Cc1cc(/C=N/n2cnnc2)c(C)n1-c1ccc(OCc2ccccc2F)cc1,5.37,
COc1ccccc1NS(=O)(=O)c1cccc(C(=O)NC2CCN(Cc3ccccc3)CC2)c1,,> 20 µM (inactive)
Cc1ccc2c(c1)c(C)cc[n+]2Cc1ccccc1,5.06,
CC1CCN(Cc2c(C(=O)N/N=C/c3ccccc3O)nnn2-c2nonc2N)CC1,5.25,
O=C(NCCNc1ccnc2cc(Cl)ccc12)c1ccccc1F,5.09,
Cc1cccc(CCN2C(N(C)C)=NC[C@@H]2CC(C)C)c1,4.99,
CCCN(CCC)CCNC(=O)c1cc2c(=O)n(C)c3ccccc3c2n1C,,> 20 µM (inactive)
CNc1nc(NCc2ccccc2)c2ccccc2n1,4.70,
COc1ccc(CN(C)C(=O)c2cccc(NC(=O)CC3SC(N4CCCCC4)=NC3=O)c2)c(OC)c1 (stereo not drawn),4.89,

# From PubChem BioAssay AID602464 (Sanford-Burnham Center for Chemical Genomics, 2012)
